Values quoted from earlier work as cited in patent publication US11666634B2, “Methods and compositions for management of gastrointestinal disorders” (THE BOARD OF REGENTS OF THE UNIVERSITY OF TEXAS SYSTEM, priority 2019, dated 2023).

Which results are given for `CC[C@H](C)[C@H](NC(=O)[C@@H]1CCCN1C(=O)CNC(=O)[C@H](Cc1ccccc1)NC(=O)[C@H](CC(N)=O)NC(=O)[C@H](CC(N)=O)NC(=O)[C@H](CO)NC(=O)[C@H](CO)NC(=O)[C@H](Cc1c[nH]cn1)NC(=O)[C@@H](NC(=O)[C@H](CC(C)C)NC(=O)[C@H](Cc1ccccc1)NC(=O)[C@H](CC(N)=O)NC(=O)[C@H](C)NC(=O)[C@H](CC(C)C)NC(=O)[C@H](CCCNC(=N)N)NC(=O)[C@H](CCC(N)=O)NC(=O)[C@@H](NC(=O)[C@H](C)NC(=O)[C@@H]1CSSC[C@H](NC(=O)[C@@H](N)CCCCN)C(=O)N[C@@H](CC(N)=O)C(=O)N[C@@H]([C@@H](C)O)C(=O)N[C@@H](C)C(=O)N[C@@H]([C@@H](C)O)C(=O)N1)[C@@H](C)O)C(C)C)C(=O)N[C@@H](CC(C)C)C(=O)N1CCC[C@H]1C(=O)N1CCC[C@H]1C(=O)N[C@H](C(=O)N[C@@H](CC(N)=O)C(=O)N[C@H](C(=O)NCC(=O)N[C@@H](CO)C(=O)N[C@@H](CC(N)=O)C(=O)N[C@H](C(=O)N[C@@H](Cc1ccc(O)cc1)C(N)=O)[C@@H](C)O)C(C)C)[C@@H](C)O` [Pramlintide, pramlintide]?
gastric emptying half time (gastric emptying of a liquid, delayed from a half time of 30 minutes without pramlintide): 110 min; rate of gastric emptying (result in words): significantly decreased
